{"source": "patent US20250136997A1", "about": "“COMPOSITIONS FOR SEQUESTERING ISOAMYL AMINE AND METHODS OF USE THEREFOR” (University of Louisville Research Foundation, Inc., priority 2023, published 2025)", "key": {"[1]": {"system": "IAA binding oligo of the S100A8 promoter (hairpin)", "assay": "Nucleic acid unwinding assay (helicase)", "format": "biochemical", "method": "Nucleic acid unwinding assay. Helicase reactions were carried out in triplicate in 96-well plates. To prepare DNA substrate, 20 μM single strand DNA (WT: 5′-Cy3-[…]-BHQ1-3′ (SEQ ID NO: 5); Mutant: 5′-Cy3-[…]-BHQ1-3′ (SEQ ID NO: 6; Eurofins Genomics LLC, KY) were denatured at 95° C. for 5 minutes in the reaction buffer (25 mM Tris HCl pH 7.5, 100 mM NaCl, 15 mM MgCl2, 1 mM DTT, 0.1 mg/ml BSA) and cooled slowly to room temperature before add IAA (100 nM) and/or helicase ([…]). After ATP (2 mM) was added to initiate the helicase activity, the fluorescence value was recorded using a microplate reader with an excitation wavelength of 550 and an emission wavelength of 570. BHQ: black-hole quencher."}, "promoter of S100A8": {"system": "promoter of S100A8", "assay": "Chromatin immunoprecipitation assay with biotinylated IAA", "format": "binding, mouse", "settings": "BV2 genomic DNA", "method": "Chromatin immunoprecipitation assay. To identify the interaction of IAA and promoter of S100A8, 1 mg of IAA was labeled with biotin using the EZ-Link NHS-PEG4 Biotinylation kit (Thermo Fisher Sci., #21455) and excess biotin was removed using a desalting column. Biotinylated IAA was incubated with microglia BV2 cells for 3 h at 37° C. following 37% formaldehyde (final 1%) in 1 ml PBS for one more hour for cross-linking. The cell lysate was collected in 1 ml of RIPA buffer and sonication was used to shear the chromatin into 0.5˜1 kb fragment. Streptavidin Dynabeads ([…]) were added to the DNA samples for 1 h at room temperature. PBS replaced the DNA and was incubated with the beads as the control to exclude non-specific interactions. After washing beads with PBS, biotinylated IAA was eluted from the beads with the biotin (4 mg/ml) in 25mMTris-HCL containing 0.3MNaCl (pH 8.5) as the elution buffer at room temperature for 1 h or 95° C. for 5 min. The supernatant was collected and the DNA was purified with acetic acid (2%, v/v) and dissolved into […] of H2O. Two ml of DNA was used in quantitative PCR reactions using the primers of S100A8-ChIP in Table 3."}, "[2]": {"assay": "Histological analysis (H&E) of brain", "format": "in vivo, mouse", "settings": "IAA to young mice, phage to aged mice; especially cerebrum and cerebellum", "method": "Histological analysis. For hematoxylin and eosin (H&E) staining, tissues were fixed with buffered 10% formalin solution (SF93-20; Fisher Scientific, Fair Lawn, NJ) overnight at 4° C. Dehydration was achieved by immersion in a graded ethanol series of 70%, 80%, 95%, and 100% ethanol for 40 minutes each. Tissues were embedded in paraffin and subsequently cut into ultra-thin slices (5 μm) using a microtome. Tissues were deparaffinized by xylene (Fisher) and rehydrated by decreasing concentrations of ethanol and PBS. Tissue sections were stained with H&E and slides were scanned with an Aperio ScanScope. For frozen sections, tissues were fixed with periodate-lysine-paraformaldehyde (PLP) and dehydrated with 30% sucrose in PBS at 4° C. overnight. The sections were incubated overnight at 4° C. with anti-Iba1 (FujiFilm, #019-19741) and anti-CD-11b (Biolegend, #101204) diluted 1:100. The signal was visualized with the secondary antibodies conjugated to Fluors Alex-488 or Alex-594 (Invitrogen) and nuclei were stained with 4′,6-Diamidino-2-phenylindole dihydrochloride (DAPI). The slides were scanned using an Aperio ScanScope or visualized using confocal laser scanning microscopy (Nikon, Melville, NY)."}}, "data": [{"smiles": "CC(C)CCN", "note": "[IAA, isoamylamine]", "values": [{"measurement": "activity of helicase unwinding of the self-complementary binding sequence", "setting": "[1]; WT Cy3/BHQ1 oligo, with helicase", "result": "enhanced"}, {"measurement": "unwinding of mutant sequence", "setting": "[1]; mutant Cy3/BHQ1 oligo", "result": "attenuated"}, {"measurement": "interaction with promoter of S100A8 genomic DNA (ChIP)", "setting": "promoter of S100A8", "result": "demonstrated"}, {"measurement": "neuronal loss and dying neurons in the brain (histology)", "setting": "[2]", "result": "significantly promoted"}]}]}
